Drawing on paper PMC8154525 (Journal of the American Chemical Society, 2021), this text covers Km for 1 molecule.

The test system of this experiment is aminopeptidase M (Ap). Kind of experiment: Ap-catalyzed cleavage of H-Arg-AMC. In kind it is biochemical. To be noted: read-out: KM (Ap-catalyzed cleavage); substrate of aminopeptidase M.

In general, Km refers to the substrate concentration at which the rate is half of its maximum. For the molecule `Cc1cc(=O)oc2cc(NC(=O)[C@@H](N)CCCN=C(N)N)ccc12` [H-Arg-AMC], the Km was found to be 5 mM.
